# Entries after “also recorded” stand apart in the source; their conditions may differ. Marks after values point to notes of the source that are not given here.
# What was measured:
# NOD mice = test: Onset of diabetes and beta-cell mass in non-obese-diabetic (NOD) mice, 60 days; type: in vivo
# Text: Though reduced pancreatic T-cell migration and altered cytokine production is considered important players for the onset of insulinitis the exact mechanism and effects on the pancreatic cell pool is still incompletely understood.
# Bi-weekly plasma samples are obtained to determine onset of diabetes (BG>11 mmol/l).
# [1] = tested on: patients with type 2 diabetes; test: Postprandial glucose excursions, safety and tolerability in patients with type 2 diabetes, multiple oral doses of BI 1356
# [2] = tested on: rats fed a high-fat diet (diet induced obesity); test: Diet induced obesity rats, body weight and MRS fat analysis; settings: rat, in vivo
# diabetic eNOS ko mice = test: Diabetic nephropathy in STZ-diabetic eNOS ko mice, 4 weeks treatment; type: in vivo; settings: STZ treated animals, linagliptin 3 mg/kg, telmisartan 1 mg/kg p.o.
# Text: Endothelial damage is characteristic for type 2 diabetes and contributes to the development of end stage kidney disease. Further, vascular endothelial NO synthase (eNOS) activity is altered in T2D and genetic abnormalities in the respected gene (NOS3) are associated with the development of advanced diabetic nephropathy (DN) in patients with type 1 and type 2 diabetes. The use of low dose STZ to induce T2D in this genetic phenotype (eNOS−/−) has been recently reported (Brosius et al, JASN 2009) to be a valid experimental model for DN. Eight week old eNOS −/− mice are rendered diabetic with intraperitoneal injections of streptozotocin (100 mg/kg per day for two consecutive days). Development of diabetes (defined by blood glucose>250 mg/dl) is verified one week after streptozotocin injection. No insulin is given because that could prevent the development of diabetic nephropathy. Mice are treated for 4 weeks with:
# 1) Non-diabetic eNOS ko control mice, placebo (natrosol) (n=14)
# 2) sham treated diabetic eNOS ko mice, placebo (natrosol) (n=17)
# 3) Telmisartan (p.o. 1 mg/kg) treated diabetic eNOS ko mice (n=17)
# Renal function (s-creatinine, albuminuria) and blood glucose level are detected.
# [3] = tested on: T2DM patients on stable metformin
# [4] = tested on: adhesion of human neutrophils to endothelial cells (EA.hy cells); test: Adhesion of LPS-stimulated human neutrophils to cultured endothelial cells; type: cell-based; settings: in the presence of LPS
# [5] = tested on: patients with type 2 diabetes
# [6] = tested on: isolated aortic ring segments; test: Direct vasodilatory effects, isometric tension recording in isolated aortic ring segments; design: species or system rats; settings: cumulative concentrations 1 nM to 32 or 100 μM; versus DMSO
# Procedure: FIGS. 9A and 9B show direct vasodilatory effects of gliptins. […] The data are mean±SEM of 12 (FIG. 9A) or 4 (FIG. 9B) aortic rings from 10 rats in total: p<0.05 vs. DMSO (solvent control); ^#p<0.05 vs. sita-/vildagliptin, and ^§, p<0.05 vs. saxa-/alogliptin.
# Direct vasodilatory effects of gliptins are measured by the isometric tension technique in isolated aortic ring segments. […] In addition reactive oxygen and nitrogen species (RONS) formation is determined in isolated cardiac mitochondria and LPS or PDBu-triggered oxidative burst in whole blood.
# [7] = tested on: isolated human leukocytes (PMN); test: Oxidative burst (NADPH oxidase activation) in isolated human leukocytes (PMN); type: cell-based
# Procedure: In FIG. 4, within each setting of inhibition of oxidative burst, the first bar from left refers to activation by LPS and the second bar refers to activation by Zymosan A.
# In FIG. 6, within each setting of LPS stimulation, the first bar from left refers to w/o gliptin, the second bar refers to 1 μM Bl 1356, the third bar refers to 10 μM Bl 1356 and the fourth bar refers to 100 μM Bl 1356.
# 5/6N rats = test: Rat model of chronic renal insufficiency (5/6 nephrectomy), GLP-1 levels and cardiac mRNA; type: in vivo; settings: for active GLP-1 AUC(0-72 h) / active GLP-1 maximum plasma concentration (Cmax): linagliptin 3.3 mg/kg oral for 4 days
# Text: At the end of the study, heart tissue is harvested for mRNA analyses.
# [8] = tested on: diabetic eNOS knockout C57BL/6J mice; test: ARB-resistant diabetic nephropathy in diabetic eNOS knockout C57BL/6J mice, 12 weeks; type: in vivo
# Text: Fourteen mice are used as non-diabetic controls. After 12 weeks, urine and blood are obtained and blood pressure measured.
# [9] = tested on: ischemia/reperfusion (I/R) rats; test: Myocardial ischemia/reperfusion in Wistar rats, linagliptin from 30 days before I/R; type: in vivo
# nitrate tolerant rats = test: Rat model of nitroglycerin-induced nitrate tolerance, oral linagliptin; type: in vivo
# Procedure: (§1) Direct vasodilatory effects of gliptins are measured by the isometric tension technique in isolated aortic ring segments. […]. In addition reactive oxygen and nitrogen species (RONS) formation is determined in isolated cardiac mitochondria and LPS or PDBu-triggered oxidative burst in whole blood. […].
# [10] = tested on: hydrogen peroxide/peroxidase system; test: Direct antioxidant effect: hydrogen peroxide/peroxidase mediated 1-electron-oxidation; type: biochemical
# [11] = tested on: peroxynitrite (authentic and Sin-1 derived); test: Direct antioxidant effect: peroxynitrite formation/-mediated nitration; type: biochemical
# septic rats (LPS) = test: LPS-induced septic shock in Wistar rats, linagliptin cotherapy; type: in vivo
# Procedure: as §1
# [12] = Pharmacokinetics of BI 1356, multiple oral doses once daily for 12 days in patients with type 2 diabetes; settings: for feT, SS: steady state (Day 12); for feT, SS / fe0-24: gMean
structure (smiles),measurement,setting,value
CC#CCn1c(N2CCC[C@@H](N)C2)nc2c1c(=O)n(Cc1nc(C)c3ccccc3n1)c(=O)n2C [linagliptin],incidence of diabetes at the end of the study period,"NOD mice; diet corresponding to 3-10 mg/kg p.o., 60 days, p=0.021",9 out of 30
same,active plasma GLP-1 at termination,"NOD mice; mouse, in vivo",higher
same,beta cell mass,NOD mice; p<0.01,0.48 ± 0.09 mg
same,decrease in 2 h postprandial blood glucose excursions,"[1]; already on Day 1, doses ≥2.5 mg",80%
same,safety and tolerability,[1]; people with type 2 diabetes,placebo-like safety and tolerability
same,"steatosis, inflammation and fibrosis in the liver, histological scoring",[2],reduction
same,blood sugar versus placebo,diabetic eNOS ko mice,No significant differences
same,adjusted mean HbA1c change from baseline,"[3]; PP population, 2 years, linagliptin 5 mg/day, glimepiride mean dose 3 mg/day, added to metformin",−0.4%
same,"patients with investigator-defined, drug-related hypoglycemia","[3]; human, in vivo, 2 years",7.5%
same,relative risk for the combined CV endpoint (RR),"[3]; human, in vivo, 2 years",0.50
same,body weight change,[3]; in vivo,-1.4 kg
same,"body weight, adjusted mean difference",[3]; in vivo,-2.7 kg
same,mean between-group difference in HbA1c change,"[3]; linagliptin vs glimepiride, p=0.0001 for noninferiority",0.17%
same,leukocyte adhesion to endothelial cells,[4],suppresses leukocyte adhesion
same,"Primary CV endpoint, incidence rate/1000 pt-yr",[5]; in vivo,5.3 /1000 pt-yr
same,"All adjudicated CV events, Hazard ratio (95% CI)",[5]; linagliptin vs comparator,"0.55 (0.33, 0.94)*"
same,"FDA-custom MACE, Hazard ratio (95% CI)",[5]; linagliptin vs comparator,"0.34 (0.15, 0.75)*"
same,"Hospitalization for UAP, Hazard ratio (95% CI)",[5]; linagliptin vs comparator,"0.24 (0.02, 2.34)"
same,"Primary CV endpoint, Hazard ratio (Cox proportional model) (95% CI)",[5]; linagliptin vs comparator,"0.34 (0.16, 0.70)*"
same,"Transient ischemic attack, Hazard ratio (95% CI)",[5]; linagliptin vs comparator,"0.17 (0.02, 1.53)"
same,"Primary CV endpoint, %",[5]; n = 3319,0.3%
same,"All adjudicated CV events, incidence rate/1000 pt-yr",[5]; secondary endpoint,12.6 /1000 pt-yr
same,"FDA-custom MACE, incidence rate/1000 pt-yr",[5]; secondary endpoint,4.3 /1000 pt-yr
same,"Hospitalization for UAP, incidence rate/1000 pt-yr",[5]; tertiary endpoint,0.5 /1000 pt-yr
same,"Non-fatal MI, incidence rate/1000 pt-yr",[5]; tertiary endpoint,2.9 /1000 pt-yr
same,"Non-fatal stroke, incidence rate/1000 pt-yr",[5]; tertiary endpoint,1.0 /1000 pt-yr
same,"Transient ischemic attack, incidence rate/1000 pt-yr",[5]; tertiary endpoint,0.5 /1000 pt-yr
same,"direct vasodilatory effect (induction of vasodilation), ranking",[6],most potent compound
same,"PMN derived RONS signal, L-012 enhanced chemiluminescence","[7]; LPS 0.5, 5 and 50 μg/ml",suppresses the signal concentration-dependently
same,inhibition of oxidative burst,"[7]; NADPH oxidase activation by LPS and zymosan A, compared with other gliptins",best inhibition
same,"suppression of LPS or zymosan A-triggered oxidative burst, luminol/peroxidase enhanced chemiluminescence",[7]; versus nebivolol,as efficient as nebivolol
same,"suppression of LPS or zymosan A-triggered oxidative burst, luminol/peroxidase enhanced chemiluminescence",[7]; versus other gliptins,much more efficient
same,active GLP-1 AUC(0-72 h),5/6N rats; 5/6N animals,201 pg·h/mL
same,active GLP-1 maximum plasma concentration (Cmax),5/6N rats; 5/6N animals,6.36 ± 2.58 pg/mL
same,"cardiac mRNA levels of TGF-β, TIMP-1, collagens 1α1 and 3α1 and BNP","5/6N rats; increased in 5/6N versus sham, all p<0.05",reduced or even normalized
same,increase of the AUC of GLP-1,5/6N rats; rat model of renal failure,approximately twofold
same,active GLP-1 AUC(0-72 h),5/6N rats; sham animals,114 pg·h/mL
same,active GLP-1 maximum plasma concentration (Cmax),5/6N rats; sham animals,3.91 ± 1.86 pg/mL
same,plasma osteopontin levels,[8]; 12 weeks,significantly lower
same,albuminuria (urinary albumin excretion per 24 h),"[8]; 12 weeks, telmisartan 1 mg/kg, linagliptin 3 mg/kg",120.8±37.7 μg/24 h
same,"glomerulosclerosis in the kidney, histological score","[8]; compared with diabetic controls, p<0.05",2.1+/−0.0
same,proportion of infarcted tissue relative to the total area at risk,"[9]; 3 mg/kg once daily from 30 days before I/R, p<0.001",−21%
same,absolute infarction size,"[9]; 3 mg/kg once daily, p<0.05",−18%
same,isovolumetric contractility index dP/dTmin,[9]; after 60 days,−4957±73 mmHg/s
same,glucagon-like peptide-1 (GLP-1) levels increased,[9]; p<0.0001,18 fold
same,cardiac mitochondrial ROS formation and whole blood LPS/zymosan A-triggered oxidative burst,nitrate tolerant rats; nitrate-tolerant rats,improved; also recorded: minor improvement
same,nitrate tolerance,nitrate tolerant rats; nitroglycerin treated rats,not altered
same,endothelial dysfunction (endothelium dependent relaxation),"nitrate tolerant rats; nitroglycerin treated rats, linagliptin 3-10 mg/kg/d by diet 7 d",significantly improved
same,body weight of the animals,"nitrate tolerant rats; rat, in vivo",Neither nitroglycerin nor linagliptin treatment has effects
same,blood glucose levels,nitrate tolerant rats; slightly increased in the nitroglycerin group,normalized
same,interference with 1-electron-oxidations by the hydrogen peroxide/peroxidase system,[10],most potent compound
same,suppression in response to peroxynitrite formation/-mediated nitration,[11],Minor (but significant) suppression
same,endothelial dysfunction (endothelium-dependent relaxation),septic rats (LPS); LPS treated rats,significantly improved
same,"vascular function (Ach-, GTN-, and diethylamine NONOate-dependent relaxation)",septic rats (LPS); impaired by LPS,almost normalized
same,"mitochondrial and whole blood (LPS, PDBu-stimulated) RONS production",septic rats (LPS); increased by LPS,improved
same,"vascular oxidative stress (DHE) and markers of vascular inflammation (VCAM-1, Cox-2, NOS-2)",septic rats (LPS); increased by LPS,significantly improved
same,increase of plasma GLP-1 levels,"septic rats (LPS); rat, in vivo",~10 fold
same,"feT, SS",[12]; 1 mg once daily oral,3.34%
same,fe0-24,[12]; 2.5 mg once daily oral,0.139%
same,"feT, SS",[12]; 2.5 mg once daily oral,3.06%
same,fe0-24,[12]; 5 mg once daily oral,0.453%
same,"feT, SS",[12]; 5 mg once daily oral,6.27%
same,fe0-24,[12]; 10 mg once daily oral,0.919%
same,"feT, SS",[12]; 10 mg once daily oral,3.22%
same,"mean accumulation ratio RA,AUC",[12]; doses above 1 mg once daily,≤ 1.4
same,route of excretion,"[12]; human, in vivo",primarily excreted unchanged via the bile
same,excreted via the kidney,[12]; therapeutic oral dose levels,< 7 % of the administered oral dose
